Source: ChEMBL document CHEMBL4840351 (J Med Chem, 2021)

Experiments:
[1] = Cmax in ICR mouse at 15 mg/kg, po after 24 hrs; type: ADME, organism-based; set-up: route oral, time 24 hrs, dose 15 mg/kg; conditions: in vivo
[2] = Receptor occupancy at BTK in PBMC of ICR mouse at 15 mg/kg, po after 1 hr by ELISA; type: functional
[3] = Receptor occupancy at BTK in spleen of ICR mouse at 15 mg/kg, po after 1 hr by ELISA; type: functional
[4] = Toxicity in SFP CD-1 mouse assessed as change in animal color at 10 to 1280 mg/kg, po administered for 7 days; type: organism-based; conditions: in vivo, 168 h, dose 10-1280 mg/kg, time 7 day
[5] = Toxicity in SFP CD-1 mouse assessed as mortality at 10 to 1280 mg/kg, po administered for 7 days; type: organism-based; conditions: in vivo, 168 h, dose 10-1280 mg/kg, time 7 day
[6] = Cmax in Sprague-Dawley rat at 5 mg/kg, po measured upto 24 hrs by LC/MS/MS analysis; type: ADME, organism-based; set-up: route oral, dose 5 mg/kg, time <=24; conditions: in vivo
[7] = Volume of distribution in Sprague-Dawley rat at 5 mg/kg, iv measured upto 24 hrs by LC/MS/MS analysis; type: ADME, organism-based; conditions: in vivo
[8] = AUC in Sprague-Dawley rat at 5 mg/kg, iv measured upto 24 hrs by LC/MS/MS analysis; type: ADME, organism-based; set-up: route intravenous, dose 5 mg/kg, time <=24; conditions: in vivo
[9] = Clearance in Sprague-Dawley rat at 5 mg/kg, iv measured upto 24 hrs by LC/MS/MS analysis; type: ADME, organism-based; conditions: in vivo
[10] = Half life in Sprague-Dawley rat at 5 mg/kg, iv measured upto 24 hrs by LC/MS/MS analysis; type: ADME, organism-based; conditions: in vivo
[11] = target: T1, Tyrosine-protein kinase ITK/TSK (Homo sapiens, UniProt Q08881); assay: Inhibition of full-length N-terminal GST-tagged ITK (2 to 620 residues) (unknown origin) expressed in Sf21 insect cells using NH2-ETVYSEVRK-biotin as substrate preincubated for 1 hr followed by ATP addition and measured after 2 hrs by ELISA
T1 sequence (Q08881 whole entry): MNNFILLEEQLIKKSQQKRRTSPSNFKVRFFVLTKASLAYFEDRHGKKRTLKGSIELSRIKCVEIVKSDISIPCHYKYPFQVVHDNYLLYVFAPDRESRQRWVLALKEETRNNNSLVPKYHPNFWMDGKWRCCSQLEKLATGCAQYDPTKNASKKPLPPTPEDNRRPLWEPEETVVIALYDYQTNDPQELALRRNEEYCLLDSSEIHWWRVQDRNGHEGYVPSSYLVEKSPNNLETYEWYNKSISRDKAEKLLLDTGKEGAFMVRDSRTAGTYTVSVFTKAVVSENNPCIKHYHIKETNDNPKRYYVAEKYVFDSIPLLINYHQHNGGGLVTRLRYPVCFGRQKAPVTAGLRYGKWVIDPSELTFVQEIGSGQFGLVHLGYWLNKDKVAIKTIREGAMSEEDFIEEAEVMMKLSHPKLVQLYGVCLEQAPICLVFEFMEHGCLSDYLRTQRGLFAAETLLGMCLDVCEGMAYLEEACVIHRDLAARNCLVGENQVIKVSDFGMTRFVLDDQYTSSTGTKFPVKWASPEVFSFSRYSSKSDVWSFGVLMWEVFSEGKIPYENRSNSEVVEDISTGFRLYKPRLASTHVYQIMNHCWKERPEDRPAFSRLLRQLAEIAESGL

[12] = target: Epidermal growth factor receptor (Homo sapiens, UniProt P00533); assay: Inhibition of N-terminal DYKDDDD-tagged EGFR (669 to 1210 residues) (unknown origin) expressed in Sf21 insect cells using NH2-ETVYSEVRK-biotin as substrate preincubated for 1 hr followed by ATP addition and measured after 2 hrs by ELISA
[13] = target: Tyrosine-protein kinase Tec (Homo sapiens) (UniProt P42680); assay: Inhibition of TEC (unknown origin) at 1 uM relative to control
[14] = target: Tyrosine-protein kinase Blk (Homo sapiens, UniProt P51451); assay: Inhibition of BLK (unknown origin) at 1 uM relative to control
[15] = target: Proto-oncogene tyrosine-protein kinase Src (Homo sapiens, UniProt P12931); assay: Inhibition of SRC (unknown origin)
MOLM-13 = assay: Antiproliferative activity against human MOLM-13 cells assessed as reduction in cell viability incubated for 72 hrs by celltiter-glo assay; conditions: MOLM-13, 72 h
Rec1 = assay: Antiproliferative activity against human REC-1 cells assessed as reduction in cell viability incubated for 72 hrs by celltiter-glo assay; conditions: Rec1, 72 h
Pfeiffer = assay: Antiproliferative activity against human Pfeiffer cells assessed as reduction in cell viability incubated for 72 hrs by celltiter-glo assay
TMD8 [16] = assay: Induction of cell cycle arrest in human TMD8 cells assessed as accumulation of cells at G2 phase at 3 nM incubated for 48 hrs by PI staining based flow cytometric analysis (reference value: 4.92 %); type: functional
TMD8 [17] = assay: Induction of cell cycle arrest in human TMD8 cells assessed as accumulation of cells at G1 phase at 30 nM incubated for 48 hrs by PI staining based flow cytometric analysis (reference value: 57.66 %); type: functional
TMD8 [18] = assay: Induction of cell cycle arrest in human TMD8 cells assessed as accumulation of cells at G1 phase at 300 nM incubated for 48 hrs by PI staining based flow cytometric analysis (reference value: 57.66 %); type: functional
TMD8 [19] = assay: Induction of cell cycle arrest in human TMD8 cells assessed as accumulation of cells at S phase at 300 nM incubated for 48 hrs by PI staining based flow cytometric analysis (reference value: 37.42 %); type: functional
TMD8 [20] = assay: Induction of cell cycle arrest in human TMD8 cells assessed as accumulation of cells at G2 phase at 300 nM incubated for 48 hrs by PI staining based flow cytometric analysis (reference value: 4.92 %); type: functional
TMD8 [21] = assay: Induction of apoptosis in human TMD8 cells at 30 nM incubated for 72 hrs by Annexin V-FITC/PI staining based flow cytometric analysis (reference value: 13.4 %); type: functional
TMD8 [22] = assay: Induction of apoptosis in human TMD8 cells at 300 nM incubated for 72 hrs by Annexin V-FITC/PI staining based flow cytometric analysis (reference value: 13.4 %); type: functional
[23] = target: Tyrosine-protein kinase BTK (Homo sapiens, UniProt Q06187); assay: Inhibition of BTK in human TMD8 cells assessed as reduction in BTK autophosphorylation at Tyr 223 residue after 4 hrs by Western blot analysis; type: cell-based
TMD8 [24] = assay: Antitumor activity against human TMD8 cells xenografted in CB-17 SCID nude mouse assessed as tumor growth inhibition at 3.75 mg/kg, po bid administered for 21 days; type: functional; conditions: 504 h, time 21 day, read-out: TGI

Chain of Tyrosine-protein kinase BTK (Q06187 whole entry): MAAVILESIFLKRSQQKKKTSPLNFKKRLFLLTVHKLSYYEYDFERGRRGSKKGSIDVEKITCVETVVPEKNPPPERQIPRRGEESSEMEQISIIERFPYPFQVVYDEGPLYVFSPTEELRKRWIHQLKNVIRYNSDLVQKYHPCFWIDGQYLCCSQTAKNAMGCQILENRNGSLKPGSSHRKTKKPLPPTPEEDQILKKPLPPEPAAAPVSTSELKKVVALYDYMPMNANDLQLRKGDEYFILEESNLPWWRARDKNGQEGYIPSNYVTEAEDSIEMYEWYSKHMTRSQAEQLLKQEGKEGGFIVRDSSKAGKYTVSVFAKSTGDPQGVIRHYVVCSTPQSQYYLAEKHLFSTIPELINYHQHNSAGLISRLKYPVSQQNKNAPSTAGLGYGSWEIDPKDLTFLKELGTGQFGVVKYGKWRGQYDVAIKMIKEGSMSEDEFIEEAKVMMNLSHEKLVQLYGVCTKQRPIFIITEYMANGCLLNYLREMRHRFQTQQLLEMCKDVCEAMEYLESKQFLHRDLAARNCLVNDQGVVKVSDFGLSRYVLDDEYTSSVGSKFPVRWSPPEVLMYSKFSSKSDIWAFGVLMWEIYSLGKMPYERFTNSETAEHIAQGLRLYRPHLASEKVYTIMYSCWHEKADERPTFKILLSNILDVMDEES
Chain of Proto-oncogene tyrosine-protein kinase Src (P12931 2-536 limits assumed): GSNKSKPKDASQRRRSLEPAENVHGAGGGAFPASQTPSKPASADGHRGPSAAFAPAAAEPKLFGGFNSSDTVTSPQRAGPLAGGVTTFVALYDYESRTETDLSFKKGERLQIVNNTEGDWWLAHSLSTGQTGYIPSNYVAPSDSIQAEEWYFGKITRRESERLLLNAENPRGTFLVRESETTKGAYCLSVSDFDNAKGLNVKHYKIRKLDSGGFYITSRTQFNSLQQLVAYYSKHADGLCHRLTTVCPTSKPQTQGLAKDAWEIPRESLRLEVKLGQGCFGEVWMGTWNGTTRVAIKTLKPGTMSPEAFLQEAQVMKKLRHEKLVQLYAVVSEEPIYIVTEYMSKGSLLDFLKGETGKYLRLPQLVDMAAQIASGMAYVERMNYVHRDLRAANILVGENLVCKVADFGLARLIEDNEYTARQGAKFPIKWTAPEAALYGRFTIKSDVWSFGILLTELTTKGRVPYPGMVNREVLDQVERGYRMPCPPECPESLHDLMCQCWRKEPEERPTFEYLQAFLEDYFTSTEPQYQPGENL
Chain of Epidermal growth factor receptor (P00533 whole entry, the tested form may be a part): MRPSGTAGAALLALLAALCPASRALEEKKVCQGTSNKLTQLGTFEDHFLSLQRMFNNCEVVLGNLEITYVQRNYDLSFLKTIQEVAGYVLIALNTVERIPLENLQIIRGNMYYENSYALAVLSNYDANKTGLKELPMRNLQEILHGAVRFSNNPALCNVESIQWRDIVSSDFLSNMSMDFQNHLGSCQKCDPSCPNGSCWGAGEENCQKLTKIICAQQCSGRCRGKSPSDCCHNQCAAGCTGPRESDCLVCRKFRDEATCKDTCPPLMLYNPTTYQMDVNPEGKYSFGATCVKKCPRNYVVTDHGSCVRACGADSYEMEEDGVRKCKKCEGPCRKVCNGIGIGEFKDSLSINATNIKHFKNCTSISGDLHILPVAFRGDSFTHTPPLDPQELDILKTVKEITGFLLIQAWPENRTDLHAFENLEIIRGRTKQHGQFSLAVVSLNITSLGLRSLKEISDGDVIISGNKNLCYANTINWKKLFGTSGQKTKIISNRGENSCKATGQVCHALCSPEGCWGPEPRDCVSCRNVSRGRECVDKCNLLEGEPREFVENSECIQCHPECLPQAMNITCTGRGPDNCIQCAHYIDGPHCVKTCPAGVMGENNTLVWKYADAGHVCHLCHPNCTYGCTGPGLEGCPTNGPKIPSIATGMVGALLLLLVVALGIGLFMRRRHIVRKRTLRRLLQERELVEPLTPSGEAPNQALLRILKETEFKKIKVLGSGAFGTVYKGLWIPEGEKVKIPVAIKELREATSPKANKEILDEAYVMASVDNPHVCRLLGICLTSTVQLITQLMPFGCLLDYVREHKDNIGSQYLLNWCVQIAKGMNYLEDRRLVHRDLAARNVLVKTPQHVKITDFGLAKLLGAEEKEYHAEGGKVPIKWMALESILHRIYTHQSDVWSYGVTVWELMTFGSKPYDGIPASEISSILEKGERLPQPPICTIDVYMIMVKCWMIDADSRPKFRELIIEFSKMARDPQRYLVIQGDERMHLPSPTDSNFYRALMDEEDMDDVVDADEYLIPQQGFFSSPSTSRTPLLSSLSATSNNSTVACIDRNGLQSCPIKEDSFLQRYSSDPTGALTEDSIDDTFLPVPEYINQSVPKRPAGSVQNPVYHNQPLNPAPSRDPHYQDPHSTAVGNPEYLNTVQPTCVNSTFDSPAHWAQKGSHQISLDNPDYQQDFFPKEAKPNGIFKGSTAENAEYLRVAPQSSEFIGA
Chain of Tyrosine-protein kinase Tec (Homo sapiens) (P42680 whole entry): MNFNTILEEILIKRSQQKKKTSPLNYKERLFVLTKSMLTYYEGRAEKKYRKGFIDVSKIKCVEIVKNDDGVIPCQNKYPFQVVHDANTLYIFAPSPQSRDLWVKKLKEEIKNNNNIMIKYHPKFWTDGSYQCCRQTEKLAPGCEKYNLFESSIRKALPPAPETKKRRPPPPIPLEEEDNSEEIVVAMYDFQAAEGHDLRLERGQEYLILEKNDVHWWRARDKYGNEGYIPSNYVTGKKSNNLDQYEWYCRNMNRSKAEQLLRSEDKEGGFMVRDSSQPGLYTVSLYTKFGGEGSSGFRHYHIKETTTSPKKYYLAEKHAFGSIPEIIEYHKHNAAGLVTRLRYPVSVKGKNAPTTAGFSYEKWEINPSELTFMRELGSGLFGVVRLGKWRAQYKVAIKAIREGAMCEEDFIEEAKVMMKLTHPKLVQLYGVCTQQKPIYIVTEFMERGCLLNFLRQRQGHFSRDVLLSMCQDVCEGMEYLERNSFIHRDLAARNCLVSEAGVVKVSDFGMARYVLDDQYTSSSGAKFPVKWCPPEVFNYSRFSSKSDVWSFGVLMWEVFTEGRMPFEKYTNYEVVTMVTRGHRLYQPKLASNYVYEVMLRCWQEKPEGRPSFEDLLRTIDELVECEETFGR
Chain of Tyrosine-protein kinase Blk (P51451 2-505 limits assumed): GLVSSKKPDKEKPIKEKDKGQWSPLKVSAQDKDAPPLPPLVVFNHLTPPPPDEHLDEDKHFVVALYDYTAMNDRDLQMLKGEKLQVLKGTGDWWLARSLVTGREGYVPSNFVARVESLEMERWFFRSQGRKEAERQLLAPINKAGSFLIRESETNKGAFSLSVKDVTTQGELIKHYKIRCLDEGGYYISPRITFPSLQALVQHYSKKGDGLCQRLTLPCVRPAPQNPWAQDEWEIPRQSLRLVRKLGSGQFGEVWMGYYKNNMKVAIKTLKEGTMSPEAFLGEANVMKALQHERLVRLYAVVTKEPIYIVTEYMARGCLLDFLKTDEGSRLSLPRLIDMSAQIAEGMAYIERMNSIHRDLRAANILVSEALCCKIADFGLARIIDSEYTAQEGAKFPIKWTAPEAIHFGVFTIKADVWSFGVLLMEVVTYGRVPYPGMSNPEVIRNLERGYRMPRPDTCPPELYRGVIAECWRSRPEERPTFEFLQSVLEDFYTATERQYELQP

Q: Which results are given for `C=CC(=O)N1CCCC[C@H]1c1nc(-c2ccc(C(=O)Nc3cc(C(F)(F)F)ccn3)cc2)c(C(N)=O)n1N`?
A: Cmax [1]: 2380 nM; Occ [2]: 95%; Occ [3]: 95%; Activity [4]: Non-Toxic; Activity [5]: Non-Toxic; Cmax [6]: 501 ng/mL; Vd [7]: 1.5 L/kg; AUC at 24 h [8]: 6360 ng·h/mL; clearance [9]: 13.4 mL/min/kg; half-life [10]: 79.2 min; IC50 [11]: 847 nM; IC50 [12]: 433 nM; inhibition [13]: > 80%; inhibition [14]: > 80%; inhibition (INH) [15]: Not Active; IC50 (MOLM-13): 3.7 µM; IC50 (Rec1): 35 nM; IC50 (Pfeiffer): 2500 nM; Activity (TMD8 [16]): 7.94%; Activity (TMD8 [17]): 84.36%; Activity (TMD8 [18]): 93.84%; Activity (TMD8 [19]): 2.37%; Activity (TMD8 [20]): 3.79%; Activity (TMD8 [21]): 19.2%; Activity (TMD8 [22]): 34.1%; IC50 [23]: 8.96 nM; inhibition in vivo at 3.75 mg/kg (TMD8 [24]): 81%
